Results on nine compounds are retold here after patent US20220346372A1, “Compositions For Preparing Microemulsion, Microemulsion, Method For Producing Composition And Microemulsion, And Use Of Mircoemulsion” (Moresco Corporation, priority 2019, published 2022).

In general, logP refers to a log measure of how a compound divides between an organic and an aqueous phase.

A short description of the first data set: LogP, flask shaking method (OECD guideline, n-octanol/water). The class given is physicochemical. The settings on record: 1-octanol-water partition coefficient. The text has this: Here, LogP is a common logarithmic value of a 1-octanol-water or 1-octanol-buffer partition coefficient of a chemical substance. In the present specification, LogP is a value measured by a flask shaking method based on OECD GUIDELINE FOR THE TESTING OF CHEMICALS, “Partition Coefficient (n-octanol/water): Shake Flask Method”. A chemical substance having a higher LogP has a higher degree of lipophilicity. In other words, a chemical substance having a higher LogP has a higher degree of fat-solubility.
As to `Cc1c(C)c2c(c(C)c1O)CCC(C)(CCCC(C)CCCC(C)CCCC(C)C)O2` (racemic) [tocopherol, DL-α-Tocopherol], the “LogP of the poorly water-soluble functional component” value is on record as 8.84.
Turning to `COc1ccc2c(c1)c(CC(=O)O)c(C)n2C(=O)c1ccc(Cl)cc1` [indomethacin, Indomethacin], the “LogP of the poorly water-soluble functional component” value worked out at 4.25.
With Tocotrienol, the “LogP of the poorly water-soluble functional component” value came to 7.68.

The same data set, now with this note: 1-octanol-water partition coefficient, read-out: LogP of the poorly water-soluble functional component.
As for `CC1CCC(C(C)C)C(O)C1` (single isomer, unassigned; (-)) [menthol, (−)-Menthol], the logP was found to be 2.68.
As to `COC1=C(OC)C(=O)C(C/C=C(\C)CC/C=C(\C)CC/C=C(\C)CC/C=C(\C)CC/C=C(\C)CC/C=C(\C)CC/C=C(\C)CC/C=C(\C)CC/C=C(\C)CCC=C(C)C)=C(C)C1=O` [CoQ10, coenzyme Q10], the log partition coefficient (logP) is 11.
Still for that read-out and setting: in the case of `Clc1ccc(C(c2ccc(Cl)cc2)C(Cl)(Cl)Cl)cc1` [DDT, dichlorodiphenyltrichloroethane] it was 6.5; in that of `COc1cc(/C=C/C(=O)CC(=O)/C=C/c2ccc(O)c(OC)c2)ccc1O` [curcumin, Curcumin], 3.62.
Consider `COc1ccc2c(c1)c(CC(=O)O)c(C)n2C(=O)c1ccc(Cl)cc1` [indomethacin, Indomethacin], for which the logP amounted to 4.25.
On the same count and under the same terms, for `CC(=O)O[C@H]1C(=O)[C@@]2(C)[C@H]([C@H](OC(=O)c3ccccc3)[C@]3(O)C[C@H](OC(=O)[C@H](O)[C@@H](NC(=O)c4ccccc4)c4ccccc4)C(C)=C1C3(C)C)[C@]1(OC(C)=O)CO[C@@H]1C[C@@H]2O` [paclitaxel, Paclitaxel] the value was 3.2.
Regarding `C[C@]12CC[C@H]3[C@@H](CCC4=CC(=O)CC[C@@]43C)[C@@H]1CC[C@@H]2O` [testosterone, Testosterone], the log partition coefficient (logP) came out at 2.99.
